Measured values published in patent US20250235496A1, “USE OF BELLIDIFOLIN (BEL) AND/OR BEL-CONTAINING EXTRACT IN PREPARATION OF ANTIDEPRESSANT PRODUCT” (priority 2024, published 2025).

Assay: Mass spectrometry imaging of mouse brain
Type: in vivo, mice
Conditions: 10, 20 and 40 mg/kg, 21 d

SMILES: COc1cc(O)c2c(=O)c3c(O)ccc(O)c3oc2c1 [BEL, bellidifolin]
- BEL signal in brain (mass spectrometry imaging), passage of BBB: BEL signals were detected
